Test results reported in article PMC4186413, “Identification of metabolic pathways and enzyme systems involved in the in vitro human hepatic metabolism of dronedarone, a potent new oral antiarrhythmic drug” (Pharmacology Research & Perspectives, 2014).

What was measured:
[1] = molecular target: T1, UGT1A3 (Homo sapiens, UniProt P35503); experiment: Glucuronidation by recombinant human UGT1A3; type: in vitro ADME; conditions: 1 mg/mL, 5 μmol/L, 30 min, UDPGA
T1 construct: purchased BD Gentest (Woburn, MA); host or cells: baculovirus-infected insect cells
Source text: (§1) Recombinant human CYPs (Supersomes™; BD Gentes, Woburn, MA: CYP1A1, CYP1A2, CYP2A6, CYP2B6, CYP2C8, CYP2C9, CYP2C18, CYP2C19, CYP2D6, CYP2E1, CYP3A4 and CYP3A5), FMOs (Supersomes™: FMO1, FMO3, FMO5), MAOs (Supersomes™: MAO-A and MAO-B), and UGTs (Supersomes™: UGT1A1, UGT1A3, UGT1A4, UGT1A6, UGT1A7, UGT1A8, UGT1A9, UGT1A10, UGT2B4, UGT2B7, UGT2B15, and UGT2B17) expressed in baculovirus-infected insect cells and control microsomes from insect cells infected with wild-type baculovirus were all obtained from BD Gentest (Woburn, MA).
(§2) For glucuronidation pathways, the assay mixture was composed of human liver microsomes (2 mg·mL^−1) or microsomes of baculovirus-infected cells expressing human UGTs (1 mg·mL^−1), uridine 5′-diphosphoglucuronic acid (UDPGA) (3 mmol/L), 100 mmol/L Tris HCl (pH 7.4) containing 5 mmol/L MgCl2 and 5 μmol/L of the investigated compound dissolved in DMSO in a final volume of 500 μL. The final concentration of DMSO in the reaction mixture was less than 1% (v/v). […]
(§3) Figure 7 Contribution of individual UGTs to the glucuronidation of propanoic acid-dronedarone and phenol-dronedarone. […] Unchanged drugs were quantified by LC/MS-MS relative to the synthetic references as described in Materials and Methods. Data are expressed as the percentage of glucuronidation.

[2] = molecular target: T2, CYP1A1 (Homo sapiens, UniProt P04798); experiment: Oxidation by recombinant human CYP1A1; type: in vitro ADME; conditions: 100 pmol/mL, 5 μmol/L, 30 min, NADPH
T2 construct: purchased BD Gentest (Woburn, MA); host or cells: baculovirus-infected insect cells
Source text: as §1, with “MA). […]” for “MA).”
(§4) In human liver microsomes and recombinant isoforms, the percentage of metabolism was determined on the basis of unchanged drug disappearance, using the following equation [drawing 1] where UDt = 30 min represents the unchanged drug peak area after a 30-min incubation period and UDt = 0, the unchanged drug peak area at t = 0. […]
(§5) Figure 5 Contribution of individual CYPs, FMOs and MAOs to the oxidation of dronedarone and its metabolites. […] Unchanged drugs were quantified by LC/MS-MS relative to the synthetic references as described in Materials and Methods. Data are expressed as the percentage of oxidation.

[3] = molecular target: T3, CYP2C19 (Homo sapiens, UniProt P33261); experiment: Oxidation by recombinant human CYP2C19; type: in vitro ADME; conditions: 100 pmol/mL, 5 μmol/L, 30 min, NADPH
T3 construct: purchased BD Gentest (Woburn, MA); host or cells: baculovirus-infected insect cells
Source text: as §1, with “MA). […]” for “MA).”
as §4, §5

[4] = molecular target: T4, UGT2B7 (Homo sapiens, UniProt P16662); experiment: Glucuronidation by recombinant human UGT2B7; type: in vitro ADME; conditions: 1 mg/mL, 5 μmol/L, 30 min, UDPGA
T4 construct: purchased BD Gentest (Woburn, MA); host or cells: baculovirus-infected insect cells
Source text: as §1, §2, §3

[5] = molecular target: T5, UGT1A1 (Homo sapiens, UniProt P22309); experiment: Glucuronidation by recombinant human UGT1A1; type: in vitro ADME; conditions: 1 mg/mL, 5 μmol/L, 30 min, UDPGA
T5 construct: purchased BD Gentest (Woburn, MA); host or cells: baculovirus-infected insect cells
Source text: as §1, §2, §3

[6] = molecular target: T6, UGT2B15 (Homo sapiens, UniProt P54855); experiment: Glucuronidation by recombinant human UGT2B15; type: in vitro ADME; conditions: 1 mg/mL, 5 μmol/L, 30 min, UDPGA
T6 construct: purchased BD Gentest (Woburn, MA); host or cells: baculovirus-infected insect cells
Source text: as §1, §2, §3

[7] = test system: CYP3A4; conditions: reversible inhibition, human liver microsomes, reported; cited from earlier work
[8] = molecular target: T7, CYP3A4 (Homo sapiens, UniProt P08684); experiment: Oxidation by recombinant human CYP3A4; type: in vitro ADME; conditions: for Percentage of oxidation (unchanged drug disappearance) by CYP3A4: 100 pmol/mL, 5 μmol/L, 30 min, NADPH
T7 construct: purchased BD Gentest (Woburn, MA); host or cells: baculovirus-infected insect cells
Source text: as §1
For oxidative pathways, the assay mixture was composed of human liver microsomes (1 mg·m·L^−1) or microsomes of baculovirus-infected cells expressing human enzymes (100 pmol·mL^−1 for CYPs and 1 mg·mL^−1 for FMOs and MAOs), nicotinamide adenine dinucleotide phosphate reduced form (NADPH) (1 mmol/L), 100 mmol/L potassium phosphate (pH 7.4), and 5 μmol/L of the investigated compound dissolved in DMSO in a final volume of 500 μL.
The final concentration of DMSO in the reaction mixture was less than 1% (v/v). Initial rate conditions with respect to time and protein concentration for both the disappearance of unchanged drug and the formation of respective metabolites were established in preliminary studies. […]
as §4, §5

[9] = molecular target: T8, CYP2D6 (Homo sapiens, UniProt P10635); conditions: reversible inhibition, human liver microsomes, reported; cited from earlier work
T8 construct: purchased BD Gentest (Woburn, MA); host or cells: baculovirus-infected insect cells

[10] = molecular target: T9, MAO-B (Homo sapiens, UniProt P27338); experiment: Oxidation by recombinant human MAO-B; type: in vitro ADME; conditions: 1 mg/mL, 5 μmol/L, 30 min, no cofactor
T9 construct: purchased BD Gentest (Woburn, MA); host or cells: baculovirus-infected insect cells
Source text: as §1, with “MA). […]” for “MA).”
as §4, §5

[11] = molecular target: T10, CYP2C8 (Homo sapiens, UniProt P10632); experiment: Oxidation by recombinant human CYP2C8; type: in vitro ADME; conditions: 100 pmol/mL, 5 μmol/L, 30 min, NADPH
T10 construct: purchased BD Gentest (Woburn, MA); host or cells: baculovirus-infected insect cells
Source text: as §1, with “MA). […]” for “MA).”
as §4, §5

T7 sequence (P08684 whole entry): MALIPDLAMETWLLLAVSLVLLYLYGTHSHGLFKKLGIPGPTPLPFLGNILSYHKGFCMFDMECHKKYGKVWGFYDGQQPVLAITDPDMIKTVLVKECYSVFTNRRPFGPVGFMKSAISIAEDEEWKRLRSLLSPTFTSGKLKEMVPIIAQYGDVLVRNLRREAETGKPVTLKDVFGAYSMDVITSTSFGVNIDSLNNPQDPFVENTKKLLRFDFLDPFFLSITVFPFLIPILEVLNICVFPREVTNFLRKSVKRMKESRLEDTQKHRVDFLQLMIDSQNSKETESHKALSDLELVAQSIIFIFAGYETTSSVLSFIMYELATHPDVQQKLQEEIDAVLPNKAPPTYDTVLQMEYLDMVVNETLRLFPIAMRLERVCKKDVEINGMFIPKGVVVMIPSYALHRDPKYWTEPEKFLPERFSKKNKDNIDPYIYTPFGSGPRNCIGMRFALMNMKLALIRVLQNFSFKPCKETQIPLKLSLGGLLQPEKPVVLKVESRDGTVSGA
T2 sequence (P04798 whole entry): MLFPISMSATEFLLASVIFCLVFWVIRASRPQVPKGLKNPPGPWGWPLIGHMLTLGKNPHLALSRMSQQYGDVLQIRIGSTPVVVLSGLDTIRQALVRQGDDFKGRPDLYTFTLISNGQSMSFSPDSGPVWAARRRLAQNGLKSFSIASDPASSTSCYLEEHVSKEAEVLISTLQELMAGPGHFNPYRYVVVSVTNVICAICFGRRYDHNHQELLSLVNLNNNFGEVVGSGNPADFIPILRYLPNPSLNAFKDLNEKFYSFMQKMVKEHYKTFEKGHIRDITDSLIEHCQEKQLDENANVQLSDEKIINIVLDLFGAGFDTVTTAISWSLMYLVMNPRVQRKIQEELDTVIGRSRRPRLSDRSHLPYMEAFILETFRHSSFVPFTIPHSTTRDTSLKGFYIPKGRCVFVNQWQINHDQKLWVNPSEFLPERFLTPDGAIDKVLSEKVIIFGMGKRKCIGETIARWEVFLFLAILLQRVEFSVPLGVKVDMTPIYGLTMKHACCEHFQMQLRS
T4 sequence (P16662 24-529): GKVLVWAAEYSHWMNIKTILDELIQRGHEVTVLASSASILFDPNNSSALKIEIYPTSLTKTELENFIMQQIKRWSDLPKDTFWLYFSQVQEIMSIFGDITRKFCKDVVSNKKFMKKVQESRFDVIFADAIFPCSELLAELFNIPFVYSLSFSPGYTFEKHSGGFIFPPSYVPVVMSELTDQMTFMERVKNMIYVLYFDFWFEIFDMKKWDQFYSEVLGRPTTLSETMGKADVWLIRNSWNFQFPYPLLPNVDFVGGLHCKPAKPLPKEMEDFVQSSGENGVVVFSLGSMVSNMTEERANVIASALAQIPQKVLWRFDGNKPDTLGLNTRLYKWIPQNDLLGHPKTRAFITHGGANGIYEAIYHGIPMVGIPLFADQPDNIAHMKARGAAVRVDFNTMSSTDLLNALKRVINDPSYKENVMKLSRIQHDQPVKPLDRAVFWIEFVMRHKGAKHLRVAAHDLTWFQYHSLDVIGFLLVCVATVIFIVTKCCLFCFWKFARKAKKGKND
T10 sequence (P10632 whole entry): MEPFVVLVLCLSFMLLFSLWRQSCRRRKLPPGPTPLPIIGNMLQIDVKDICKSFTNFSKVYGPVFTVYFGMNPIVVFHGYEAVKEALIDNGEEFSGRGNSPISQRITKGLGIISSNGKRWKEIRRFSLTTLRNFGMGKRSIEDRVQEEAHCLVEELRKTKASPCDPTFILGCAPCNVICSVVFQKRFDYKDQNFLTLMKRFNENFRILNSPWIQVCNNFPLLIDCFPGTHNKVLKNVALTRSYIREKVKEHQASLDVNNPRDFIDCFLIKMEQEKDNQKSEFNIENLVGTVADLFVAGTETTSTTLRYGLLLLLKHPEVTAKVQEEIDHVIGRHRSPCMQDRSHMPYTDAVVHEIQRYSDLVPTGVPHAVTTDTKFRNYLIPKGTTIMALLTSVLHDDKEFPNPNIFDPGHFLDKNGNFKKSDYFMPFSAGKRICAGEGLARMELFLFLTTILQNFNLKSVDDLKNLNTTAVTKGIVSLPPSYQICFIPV
T6 sequence (P54855 24-530): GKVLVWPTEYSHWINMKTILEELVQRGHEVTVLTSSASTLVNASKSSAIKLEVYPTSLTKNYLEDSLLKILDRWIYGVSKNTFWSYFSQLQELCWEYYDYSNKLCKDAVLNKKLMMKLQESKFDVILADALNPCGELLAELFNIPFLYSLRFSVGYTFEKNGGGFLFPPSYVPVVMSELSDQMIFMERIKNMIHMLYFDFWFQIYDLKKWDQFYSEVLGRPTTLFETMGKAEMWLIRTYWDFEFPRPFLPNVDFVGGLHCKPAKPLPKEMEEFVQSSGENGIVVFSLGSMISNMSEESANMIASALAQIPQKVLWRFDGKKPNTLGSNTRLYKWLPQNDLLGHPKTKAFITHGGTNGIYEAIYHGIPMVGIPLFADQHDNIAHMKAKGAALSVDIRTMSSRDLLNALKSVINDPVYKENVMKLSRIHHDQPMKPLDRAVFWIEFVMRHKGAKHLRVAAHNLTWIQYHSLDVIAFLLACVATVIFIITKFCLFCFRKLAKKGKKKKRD
T5 sequence (P22309 26-533): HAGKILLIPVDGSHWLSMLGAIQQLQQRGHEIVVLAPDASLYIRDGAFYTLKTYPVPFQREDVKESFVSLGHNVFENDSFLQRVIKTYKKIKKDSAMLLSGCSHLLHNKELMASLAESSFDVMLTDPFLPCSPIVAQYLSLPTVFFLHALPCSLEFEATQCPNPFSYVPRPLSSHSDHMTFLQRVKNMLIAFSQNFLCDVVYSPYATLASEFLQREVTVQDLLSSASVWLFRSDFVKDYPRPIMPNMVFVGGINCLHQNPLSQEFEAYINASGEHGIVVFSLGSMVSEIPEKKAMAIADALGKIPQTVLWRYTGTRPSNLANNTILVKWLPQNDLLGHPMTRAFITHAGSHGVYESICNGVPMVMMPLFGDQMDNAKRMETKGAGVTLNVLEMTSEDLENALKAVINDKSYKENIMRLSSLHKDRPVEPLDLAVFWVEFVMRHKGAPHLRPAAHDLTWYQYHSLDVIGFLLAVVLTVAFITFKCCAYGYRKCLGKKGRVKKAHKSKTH
T8 sequence (P10635 whole entry): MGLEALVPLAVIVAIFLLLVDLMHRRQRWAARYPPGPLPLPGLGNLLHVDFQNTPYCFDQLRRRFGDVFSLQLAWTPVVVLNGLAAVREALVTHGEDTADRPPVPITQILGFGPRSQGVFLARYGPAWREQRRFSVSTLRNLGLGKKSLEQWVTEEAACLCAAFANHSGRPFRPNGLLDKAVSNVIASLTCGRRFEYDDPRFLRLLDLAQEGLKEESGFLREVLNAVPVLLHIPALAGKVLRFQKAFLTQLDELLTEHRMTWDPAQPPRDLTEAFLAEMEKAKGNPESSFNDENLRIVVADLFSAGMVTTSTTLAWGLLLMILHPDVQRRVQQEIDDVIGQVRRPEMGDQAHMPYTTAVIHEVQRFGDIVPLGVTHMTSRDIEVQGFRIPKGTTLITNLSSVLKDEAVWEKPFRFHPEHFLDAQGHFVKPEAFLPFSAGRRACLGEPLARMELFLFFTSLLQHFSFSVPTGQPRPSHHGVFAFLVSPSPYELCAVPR
T9 sequence (P27338 whole entry): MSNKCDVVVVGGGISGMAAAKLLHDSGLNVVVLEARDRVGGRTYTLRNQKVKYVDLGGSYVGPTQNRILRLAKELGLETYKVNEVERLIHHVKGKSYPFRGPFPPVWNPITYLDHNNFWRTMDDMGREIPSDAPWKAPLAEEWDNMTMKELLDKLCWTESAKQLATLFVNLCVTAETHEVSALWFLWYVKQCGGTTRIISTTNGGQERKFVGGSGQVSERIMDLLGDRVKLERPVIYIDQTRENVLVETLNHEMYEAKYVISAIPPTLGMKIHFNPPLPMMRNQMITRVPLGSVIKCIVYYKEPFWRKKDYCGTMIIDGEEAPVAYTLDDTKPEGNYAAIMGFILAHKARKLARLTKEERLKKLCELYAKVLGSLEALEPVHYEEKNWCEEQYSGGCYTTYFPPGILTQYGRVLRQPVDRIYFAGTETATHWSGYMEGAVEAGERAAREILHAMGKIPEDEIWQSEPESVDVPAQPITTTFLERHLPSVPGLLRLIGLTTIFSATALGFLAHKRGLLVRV
T1 sequence (P35503 29-534): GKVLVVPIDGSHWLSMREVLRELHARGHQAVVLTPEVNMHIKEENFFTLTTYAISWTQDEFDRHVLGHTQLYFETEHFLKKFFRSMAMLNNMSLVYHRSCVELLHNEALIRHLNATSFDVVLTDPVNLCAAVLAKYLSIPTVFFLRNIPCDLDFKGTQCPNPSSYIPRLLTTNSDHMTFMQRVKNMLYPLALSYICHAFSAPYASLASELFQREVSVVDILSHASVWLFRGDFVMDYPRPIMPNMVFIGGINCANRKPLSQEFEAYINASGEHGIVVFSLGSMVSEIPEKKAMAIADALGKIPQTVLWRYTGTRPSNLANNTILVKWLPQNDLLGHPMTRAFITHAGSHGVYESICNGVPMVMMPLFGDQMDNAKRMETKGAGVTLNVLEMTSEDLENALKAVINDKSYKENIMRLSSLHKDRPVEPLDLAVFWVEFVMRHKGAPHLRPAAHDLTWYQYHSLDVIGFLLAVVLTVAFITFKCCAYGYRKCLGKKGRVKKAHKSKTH

With `CCCCc1oc2ccc(NS(C)(=O)=O)cc2c1C(=O)c1ccc(O)cc1` [Phenol-dronedarone] the “Glucuronosyl transferase activity of UGT1A3” value [1] was “significant glucuronosyl transferase activity”, the “Percentage of oxidation (unchanged drug disappearance) by CYP1A1” value [2] was 99% and the “Percentage of oxidation (unchanged drug disappearance) by CYP2C19” value [3] was 52%. The “Glucuronosyl transferase activity of UGT2B7” value [4] was “significant glucuronosyl transferase activity”, the “Glucuronosyl transferase activity of UGT1A1” value [5] was “significant glucuronosyl transferase activity” and the “Glucuronosyl transferase activity of UGT2B15” value [6] was “significant glucuronosyl transferase activity”.

In the case of `CCCCc1oc2ccc(NS(C)(=O)=O)cc2c1C(=O)c1ccc(OCCCN(CCCC)CCCC)cc1.Cl` [Dronedarone, N-(2-Butyl-3-(4-(3-(dibutylamino)propoxy)benzoyl)-5-benzofuranyl)methanesulfonamide, hydrochloride], the Ki [7] is given as […], the “Percentage of oxidation (unchanged drug disappearance) by CYP3A4” value [8] is given as 94% and the Ki [9] is given as 5 µM.

For `CCCCNCCCOc1ccc(C(=O)c2c(CCCC)oc3ccc(NS(C)(=O)=O)cc23)cc1` [N-debutyl-dronedarone], the “Percentage of oxidation (unchanged drug disappearance) by CYP3A4” value [8] was 21%, the “Metabolite formed, as percent of initial dronedarone concentration, with CYP3A4” value ([8]; 5 μmol/L dronedarone, end of 30-min incubation) was 60% and the “Metabolism by MAO-B” value [10] was “no metabolism occurred”.

In the case of `CCCCc1oc2ccc(NS(C)(=O)=O)cc2c1C(=O)c1ccc(OCCC(=O)O)cc1` [Propanoic acid-dronedarone], the “Percentage of oxidation (unchanged drug disappearance) by CYP1A1” value [2] is reported as 59%, the “Glucuronosyl transferase activity of UGT2B7” value [4] is reported as “significant glucuronosyl transferase activity” and the “Percentage of oxidation (unchanged drug disappearance) by CYP2C8” value [11] is reported as 28%.
